How the values were obtained:
N^KO and N^WT mice = system: N^KO and N^WT mice
Method: (§1) All studies with the selective ablation of the Jnk1 gene in the mouse nervous system were performed using male mice (8-24 wks old). The mice were treated with PTU in the drinking water (cherry-flavored Cool-Aid supplemented without or with 1.2 mM PTU (Sigma)). Body temperature was measured using a Microtherma 2 Type “T” Thermometer (Braintree Scientic Inc). Rip-CreESR mice were treated with 1 mg 4-hydroxytamoxifen (Sigma) by intraperitoneal injection once each day for 5 consecutive days.
N^KO and N^WT mice were treated with PTU in the drinking water and the effect of feeding a chow diet or a HFD was examined.

Jnk1−/− mice = conditions: PTU-treated Jnk1−/− mice
Method: as §1

SOCS3 = assay: Hepatic SOCS3 expression by immunoblot after IL6 treatment; format: in vivo; conditions: acute IL6 1 μg/kg s.c., HFD-fed F^KO mice, liver at 90 mins; compared with HFD-fed F^WT
Method: (§2) FIG. 10E is a representation of an immunoblot to detect expression of SOCS3 and tubulin (control). F^WT and F^KO mice were fed a HFD (16 wks). F^KO mice were treated with IL6 (1 μg/kg) by subcutaneous injection. At 90 mins post-injection, the blood IL6 concentration was 44±9.1 pg/ml (mean±SD; n=8), the liver was isolated, and the expression of SOCS3 and Tubulin was examined by immunoblot analysis as set forth in Example 1.
(§3) Immunoblot analysis: Tissue extracts were prepared using Triton lysis buffer [20 mM Tris (pH 7.4), 1% Triton X-100, 10% glycerol, 137 mM NaCl, 2 mM EDTA, 25 mM β-glycerophosphate, 1 mM sodium orthovanadate, 1 mM phenylmethylsulfonyl fluoride, and 10 μg/mL of aprotinin and leupeptin]. […] Immunocomplexes were detected by enhanced chemiluminescence (NEN). Quantitation of immunoblots was performed using the Odyssey™ infrared imaging system (LI-COR Biosciences). The amount of total and phospho-JNK1/2, cJun, ERK1/2, p38 MAPK, and AKT in tissue extracts was measured by multiplexed ELISA using a Luminex 200 instrument (Millipore) […]

HFD-fed F^KO mice = assay: Insulin tolerance test after IL6 treatment; format: in vivo; conditions: IL6 1 μg/kg s.c., then insulin 0.75 mU/g i.p. after 90 mins; HFD-fed F^KO vs HFD-fed F^WT
Method: FIG. 10F is a graph of the glucose concentration during an ITT in which mice were treated by subcutaneous injection with IL6 (1 μg/kg) and then treated (after 90 mins) with insulin (0.75 mU/g) by intraperitoneal injection. Statistically significant differences between F^KO and F^WT mice are indicated (*, P<0.05; **, P<0.01).
Glucose tolerance, insulin tolerance, pyruvate challenge, and insulin clearance tests: The mice were fed a standard chow diet or a high fat diet (Iso Pro 3000, Purina and F3282, Bioserve Inc.) for 16 wks. Glucose tolerance tests (GTT), insulin tolerance tests (ITT), and pyruvate challenge tests were performed using methods described by Mora et al., FEBS Lett., 579, 3632 (2005). For GTT, mice fasted overnight were injected intraperitoneally with glucose (1 mg/g) and blood glucose concentration was measured over time. For ITT, mice fed ad libitum were injected intraperitoneally with insulin (0.75 mU/g) and blood glucose concentration was measured over time. In some ITT experiments, blood glucose concentration was measured at 30 minutes and the area under the curve (AUC) was calculated. For pyruvate challenge tests, mice fasted overnight were injected intraperitoneally with pyruvate (1 mg/g) and blood glucose concentration was measured over time. […]

[1] = Blood IL6 concentration after subcutaneous IL6 injection; format: in vivo; conditions: IL6 1 μg/kg subcutaneous, HFD-fed F^KO mice, 90 mins post-injection, mean±SD, n=8
Method: as §2
Cytokine analysis: Cytokines in plasma, serum, and culture medium were measured by multiplexed ELISA using a Luminex 200 machine (Millipore) and serum mouse adipokine, adiponectin and cytokine kits (Millipore). Insulin and insulin C-peptide in plasma were measured by ELISA using a Luminex 200 machine. Blood glucose was measured with an Ascensia Breeze 2 glucose meter (Bayer). Alanine transaminase (ALT) and aspartate aminotransferase (AST) activity in serum was measured using the ALT and AST Reagent kit (Pointe Scientific) with a Tecan Sapphire […] microplate reader (Tecan Trading AG).

AKT = assay: Insulin-stimulated AKT activation (immunoblot) after IL6 treatment; format: in vivo; conditions: IL6 1 μg/kg s.c., insulin 0.3 mU/g i.v. after 90 mins, HFD-fed F^KO mice
Method: FIGS. 10G and 10H are representations of immunoblots to detect AKT, phospho-AKT, and tubulin in liver (G) and epididymal fat pads (H). HFD-fed F^KO mice were subcutaneously injected with IL6 (1 μg/kg) and after 90 mins, intravenously injected with insulin (0.3 mU/g). The liver (G) and epididymal fat pads (H) were isolated after 5 mins and examined by immunoblot analysis as set forth in Example 1.
as §3

Molecule | expression of thyroid hormone responsive genes in intrascapular brown fat (N^KO and N^WT mice; PTU 1.2 mM in drinking water, NKO mice) | body weight when fed a HFD, N^KO vs N^WT (N^KO and N^WT mice; PTU in drinking water 12 wks, diet groups after 2 wks) | blood glucose, insulin, leptin and resistin concentrations and body temperature, N^KO vs N^WT (N^KO and N^WT mice; after 12 wks of PTU, chow-fed and HFD-fed) | metabolic phenotypes of NKO mice (N^KO and N^WT mice; inhibition of thyroid hormone by PTU-treatment) | effect of whole body JNK1-deficiency on HFD-induced weight gain, hyperglycemia, glucose intolerance, insulin sensitivity, glucose-induced insulin release (Jnk1−/− mice) | hepatic SOCS3 expression (SOCS3) | insulin resistance in insulin tolerance test (HFD-fed F^KO mice) | blood IL6 concentration [1] | effect on AKT activation in the adipose tissue (AKT; epididymal fat pads) | insulin-stimulated AKT activation in the liver (AKT; liver)
CCCc1cc(=O)[nH]c(=S)[nH]1 [PTU, propylthiouracil] | suppressed the increased expression of thyroid hormone responsive genes | No statistically significant differences | No significant differences | markedly suppressed the metabolic phenotypes | significantly suppressed the effect of whole body JNK1-deficiency | – | – | – | – | –
IL6: inflammatory cytokine interleukin 6, given to mice by subcutaneous injection (1 μg/kg) (protein, UniProt P08505 25-211, looked up) Interleukin-6: FPTSQVRRGDFTEDTTPNRPVYTTSQVGGLITHVLWEIVEMRKELCNGNSDCMNNDDALAENNLKLPEIQRNDGCYQTGYNQEICLLKISSGLLEYHSYLEYMKNNLKDNKKDKARVLQRDTETLIHIFNQEVKDLHKIVLPTPISNALLTDKLESQKEWLRTKTIQFILKSLEEFLKVTLRSTRQT | – | – | – | – | – | increased hepatic SOCS3 expression | became equally insulin resistant | 44 ± 9.1 pg/mL | only a moderate effect | reduced insulin-stimulated AKT activation

From US20100183633A1, “INTERLEUKIN 6 AND TUMOR NECROSIS FACTOR ALPHA AS BIOMARKERS OF JNK INHIBITION” (UNIVERSITY OF MASSACHUSETTS, priority 2008, published 2010)
